Reference: patent USRE45313E1, “Exendin variant peptides” (priority 1999, dated 2014)
pKi: −log10 of the molar value.

What was measured:
[1] = target: T1, leucine aminopeptidase (Sus scrofa, UniProt P28839); assay: In vitro stability in leucine aminopeptidase solution; details: pH 7.4
T1 sequence (P28839 1-519): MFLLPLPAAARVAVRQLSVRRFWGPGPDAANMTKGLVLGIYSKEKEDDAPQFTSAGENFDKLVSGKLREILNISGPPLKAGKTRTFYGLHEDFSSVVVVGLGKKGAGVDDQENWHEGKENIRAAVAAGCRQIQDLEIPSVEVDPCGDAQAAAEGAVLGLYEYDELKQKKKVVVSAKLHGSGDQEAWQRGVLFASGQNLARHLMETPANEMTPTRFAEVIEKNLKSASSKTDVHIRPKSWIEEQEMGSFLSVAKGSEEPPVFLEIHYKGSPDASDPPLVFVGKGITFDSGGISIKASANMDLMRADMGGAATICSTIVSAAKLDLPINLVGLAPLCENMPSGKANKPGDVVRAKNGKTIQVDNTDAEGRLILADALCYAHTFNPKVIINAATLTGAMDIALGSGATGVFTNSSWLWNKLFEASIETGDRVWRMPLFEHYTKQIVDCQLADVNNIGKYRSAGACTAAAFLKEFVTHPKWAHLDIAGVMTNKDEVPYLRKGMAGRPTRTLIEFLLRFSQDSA
Description: (§1) A SHT200D block heater from Stuart Scientific was used for heating of the peptide/enzyme solutions during the stability experiments. The degradation of the test compounds was studied at 37° C. in 50 mM phosphate buffer solutions of pH 7.4 containing leucine aminopeptidase (25 U/ml) or carboxypeptidase A (1 U/ml) or 100 mM ammoniumbicarbonate buffer of pH 8.0 containing dipeptidyl aminopeptidase IV (0.5 U/ml). Experiments were initiated by addition of an aliquot (100 μl) of a stock solution (1 mg/ml) of the peptide in water to 900 μl preheated enzyme solution in an Eppendorf microvial giving an initial concentration of 0.1 mg/ml (˜1.7·10−5-1.8·10−5 M) of the peptide. The peptide/enzyme solution was kept at 37° C. and at appropriate time intervals samples of 100 μl were withdrawn from the peptide/enzyme solution and mixed thoroughly with 20 μl 25% TFA in acetonitrile in order to stop the enzymatic degradation process. The inactivated samples were transferred to autosampler vials and analysed for content of intact test compound by HPLC as described below.
(§2) Samples from the stability experiments performed as described above were analysed by gradient HPLC analysis using the instrumentation described above and the following experimental conditions.
(§3) In vitro stability studies with the present peptides and peptide conjugates in the presence of selected proteolytic enzymes are applied as a tool for evaluating the protection of said peptides against proteolysis in vivo.
(§4) Water used was of highest quality obtained from a Milli-Q water treatment system (Millipore, Bedford, Mass., U.S.A.). Acetonitrile (ACN) was of super gradient quality obtained from Labscan Ltd. (Dublin, Ireland). […] Leucine aminopeptidase (EC 3.4.11.1), Carboxypeptidase A (EC 3.4.17.1) and Dipeptidyl peptidase (Dipeptidyl aminopeptidase IV, EC 3.4.14.5) were all obtained from Sigma (St. Louis, Mo., U.S.A.). Gradient HPLC analysis was done using a Hewlett Packard HP 1100 HPLC system consisting of a HP 1100 Binary Pump, a HP 1100 Autosampler, A HP 1100 Column Thermostat and a HP 1100 Variable Wavelength Detector. Hewlett Packard Chem-station for LC software (Rev. A.06.01) was used for instrument control and data acquisition. A Vydac 238TP54 (150×4.6 mm I.D.) column packed with 5 μm, C18, 300 Å

[2] = target: T2, carboxypeptidase A (Bos taurus, UniProt P00730); assay: In vitro stability in carboxypeptidase A solution; details: pH 7.4
T2 sequence (P00730 111-419): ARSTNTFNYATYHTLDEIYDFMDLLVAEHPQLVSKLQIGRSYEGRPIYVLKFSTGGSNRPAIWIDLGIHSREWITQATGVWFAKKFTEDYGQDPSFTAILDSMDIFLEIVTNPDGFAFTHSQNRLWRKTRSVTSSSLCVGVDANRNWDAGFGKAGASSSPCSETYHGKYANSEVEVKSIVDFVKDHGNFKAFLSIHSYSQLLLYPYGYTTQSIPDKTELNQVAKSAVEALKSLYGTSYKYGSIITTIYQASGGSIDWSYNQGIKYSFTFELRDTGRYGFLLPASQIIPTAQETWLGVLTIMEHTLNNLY
Description: as §1, §2, §3, §4

[3] = target: dipeptidyl aminopeptidase IV (Sus scrofa, UniProt P22411); assay: In vitro stability in dipeptidyl aminopeptidase IV solution; details: pH 8
Description: as §1, §2, §3, §4

[4] = target: T3, (Rattus norvegicus, UniProt P32301); details: inhibition of [^125I]GLP-1 binding; cited from earlier work
T3 construct: host or cells: brain tissue: nucleus of the solitary tract
T3 sequence (P32301 22-463): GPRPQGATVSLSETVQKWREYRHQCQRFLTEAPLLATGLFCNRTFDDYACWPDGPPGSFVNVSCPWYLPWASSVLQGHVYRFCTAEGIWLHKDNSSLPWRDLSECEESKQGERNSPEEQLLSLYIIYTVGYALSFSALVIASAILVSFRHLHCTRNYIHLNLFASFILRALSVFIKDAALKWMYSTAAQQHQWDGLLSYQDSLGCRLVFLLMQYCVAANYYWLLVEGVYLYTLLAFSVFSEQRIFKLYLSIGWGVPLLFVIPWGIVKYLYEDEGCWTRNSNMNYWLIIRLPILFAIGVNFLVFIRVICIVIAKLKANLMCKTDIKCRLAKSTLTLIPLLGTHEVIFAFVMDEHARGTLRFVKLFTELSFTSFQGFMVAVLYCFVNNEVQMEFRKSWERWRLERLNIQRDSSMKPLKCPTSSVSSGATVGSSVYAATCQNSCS

dipeptidyl aminopeptidase IV, sequence (P22411 whole entry): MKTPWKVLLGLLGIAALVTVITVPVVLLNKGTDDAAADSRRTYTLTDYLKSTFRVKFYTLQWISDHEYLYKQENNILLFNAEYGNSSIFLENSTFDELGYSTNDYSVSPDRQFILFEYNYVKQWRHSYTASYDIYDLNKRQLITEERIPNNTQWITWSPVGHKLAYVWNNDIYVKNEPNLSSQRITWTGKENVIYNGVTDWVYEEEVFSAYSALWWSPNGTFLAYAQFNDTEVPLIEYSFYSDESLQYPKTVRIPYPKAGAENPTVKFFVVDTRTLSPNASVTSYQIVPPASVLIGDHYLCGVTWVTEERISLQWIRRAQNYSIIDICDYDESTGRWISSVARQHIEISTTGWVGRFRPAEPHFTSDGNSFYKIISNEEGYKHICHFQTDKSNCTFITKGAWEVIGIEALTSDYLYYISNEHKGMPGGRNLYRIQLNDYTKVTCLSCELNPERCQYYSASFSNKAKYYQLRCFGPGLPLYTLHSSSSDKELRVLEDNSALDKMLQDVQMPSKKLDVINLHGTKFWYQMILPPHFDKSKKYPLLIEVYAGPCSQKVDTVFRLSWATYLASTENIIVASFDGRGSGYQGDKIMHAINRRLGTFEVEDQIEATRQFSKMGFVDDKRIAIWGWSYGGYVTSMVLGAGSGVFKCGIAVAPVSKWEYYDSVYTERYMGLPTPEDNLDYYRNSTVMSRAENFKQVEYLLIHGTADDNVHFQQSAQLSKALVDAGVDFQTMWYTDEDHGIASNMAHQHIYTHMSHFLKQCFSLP

Compound | half-life at 0.1 mg/ml [1] | half-life at 0.1 mg/ml [2] | half-life at 0.1 mg/ml [3] | pKi [4]
CC[C@H](C)[C@H](NC(=O)[C@H](Cc1ccccc1)NC(=O)[C@H](CCC(=O)O)NC(=O)[C@H](CCCCN)NC(=O)[C@H](C)NC(=O)[C@H](C)NC(=O)[C@H](CCC(N)=O)NC(=O)CNC(=O)[C@H](CCC(=O)O)NC(=O)[C@H](CC(C)C)NC(=O)[C@H](Cc1ccc(O)cc1)NC(=O)[C@H](CO)NC(=O)[C@H](CO)NC(=O)[C@@H](NC(=O)[C@H](CC(=O)O)NC(=O)[C@H](CO)NC(=O)[C@@H](NC(=O)[C@H](Cc1ccccc1)NC(=O)[C@@H](NC(=O)CNC(=O)[C@H](CCC(=O)O)NC(=O)[C@H](C)NC(=O)[C@@H](N)Cc1c[nH]cn1)[C@@H](C)O)[C@@H](C)O)C(C)C)C(=O)N[C@@H](C)C(=O)N[C@@H](Cc1c[nH]c2ccccc12)C(=O)N[C@@H](CC(C)C)C(=O)N[C@H](C(=O)N[C@@H](CCCCN)C(=O)NCC(=O)N[C@@H](CCCNC(=N)N)C(N)=O)C(C)C [GLP-1, H-hGLP-1(7-36)-NH2, reference compound] | 152 min | 48 min | 2 min | –
[Tyr39]exendin-4 | – | – | – | 8.03
